# Experimental data: publication PMC7915867, “Discovery of a Small Molecule Inhibitor of Human Adenovirus Capable of Preventing Escape from the Endosome” (International Journal of Molecular Sciences, 2021)
# “And” between values parts separate entries of the source, which are not always exact repeats. Equal entries are not always repeated. Where two headings read alike, the source gives them in different places.
# Legend:
# A549 cells = conditions: cited from earlier work
# HAdV5-GFP [1] = conditions: read-out: IC50 (anti-HAdV); cited from earlier work
# wild-type HAdV5 [2] = assay: Virus yield reduction (virus burst assay); type: cell-based, human adenovirus; conditions: for Virus Yield Reduction: A549 cells, HAdV 100 vp/cell, 48 h, niclosamide 5 μM, 16 at 10-fold IC50, versus DMSO
# Procedure: After 48 h, cells were harvested and subjected to three rounds of freeze/thaw. Serial dilutions of clarified lysates were titrated on A549 cells (3 × 10^4 cells/well), and we calculated TCID50 values using an endpoint dilution method.
# HAdV-5 DNA replication = assay: HAdV DNA quantification by real-time PCR (DNA replication); type: cell-based, human adenovirus
# Procedure: All samples were carried out in duplicate. After incubation for 24 h at 37 °C, DNA was purified from the cell lysate with the E.Z.N.A.® Tissue DNA Kit (Omega Bio-tek, Norcross, GA, USA) following the manufacturer’s instructions. TaqMan primers and probes for a common region of the HAdV5 hexon were designed with the GenScript Real-Time PCR (TaqMan) Primer Design software (GenScript, Leiden, Netherlands). Oligonucleotides sequences were: AQ1: 5′-GCCACGGTGGGGTTTCTAAACTT-3′; AQ2: 5′-GCCCCAGTGGTCTTACATGCACAT-3′; Probe: 6-FAM-5′-TGCACCAGACCCGGGCTCAGGTACTCCGA-3′-TAMRA. Real-time PCR mixtures contained 9.5 μL of the purified DNA, AQ1 and AQ2 at a concentration of 200 nM each and Probe at a concentration of 50 nM in a total volume of 25 μL. The PCR cycling protocol was 95 °C for 3 min followed by 40 cycles of 95 °C for 10 s and 60 °C for 30 s. Human glyceraldehyde-3-phosphate dehydrogenase (GAPDH) gene was applied as internal control. Oligonucleotides sequences for GAPDH and conditions were previously reported by Rivera et al..
# For quantification, gene fragments from hexon and GAPDH were cloned into the pGEM-T Easy vector (Promega, MA, USA), and known concentrations of template were used to produce a standard curve in parallel for each experiment. All assays were done in thermal cycler LightCycler® 96 System (Roche, Basel, Switzerland).
# HAdV5 = assay: HAdV-mediated endosome disruption (α-sarcin co-delivery assay); type: cell-based, human adenovirus; conditions: A549 cells
# Procedure: A549 cells (~20,000 cells/well) were incubated in DMEM without cysteine or methionine supplemented with 10% dialyzed FBS [DMEM (−)] in black 96-well plates for 1 h before infection. […] The medium was then removed and replaced with 50 μL DMEM (−) containing 0.1 mg/mL α-sarcin (Santa Cruz Biotechnology, Dallas, TX, USA) and the virus and drug mixtures. After 2 h at 37 °C, the Click-iT HPG Alexa Fluor 488 Protein Synthesis Assay Kits (Invitrogen, MA, USA) were used to analyze protein synthesis according to the manufacturer’s instructions. The incorporation of the amino acid analog of methionine L-homopropargylglycine (HPG) containing Alexa Fluor 488 azide was measured using a Typhoon 9410 imager (GE Healthcare Life Sciences, MA, USA) and calculated subtracting the background level of the control well containing L-homopropargylglycine (HPG) and α-sarcin but not virus (100% incorporation).
# HAdV5-GFP [3] = assay: microbe, parasite or virus in culture; type: cell-based, human adenovirus; conditions: for inhibition at 10 µM / IC50: Human adenovirus sp.; for inhibition at 10 µM: read-out: Plaque Assay (10 μM) (%) Inhibition; for IC50: read-out: Plaque Assay IC50
# Procedure: Compounds were measured at concentrations of 10 μM and in a dose−response assay ranging from 10 to 0.3 μM using low MOI infections (0.06 vp/cell) in a plaque assay. […] Cells were infected with HAdV5-GFP (0.06 vp/cell) and rocked for 2 h at 37 °C, when cells reached 80%–90% confluency. When the incubation was finished, the inoculum was removed followed by washing the cells once with PBS. […] The compounds were also added to the mixture in concentrations ranging from 10 to 0.3 μM. After incubation for 7 days at 37 °C, we scanned plates with a Typhoon FLA 9000 imager (GE Healthcare Life Sciences, MA, USA) and quantified plaques with ImageJ [47].
# [4] = Cytotoxicity assay (AlamarBlue); type: cell-based; conditions: human, A549 cells, A549 cell line
# Procedure: The cytotoxicity of these derivatives was tested by commercial kit AlamarBlue® (Ref. DAL1025, Invitrogen, MA, USA). […] The cytotoxic concentration 50 (CC50) value was obtained by using the statistical package GraphPad Prism. This assay was performed in duplicate.
# wild-type HAdV5 [5] = assay: Nuclear-associated HAdV genomes; type: cell-based, human adenovirus; conditions: 45 min postinfection, A549 cells, 2000 vp/cell, 10-fold IC50
# Procedure: The nuclear delivery of HAdV genomes was evaluated by real-time PCR following nuclear isolation from infected cells. […] Forty-five minutes after infection, A549 cells were trypsinized, collected, and then washed twice with PBS. After that, we separated cytoplasmic and nuclear fractions using a hypotonic buffer solution and NP-40 detergent and resuspended the cell pellet in 500 μL of 1 × hypotonic buffer (20 mM Tris-HCl pH 7.4, 10 mM NaCl, 3 mM MgCl2). After incubation for 15 min at 4 °C, 25 μL of NP-40 was added and the samples were vortexed. The homogenates were centrifuged for 10 min at 835g and 4 °C. After the removal of the cytoplasmic fraction (supernatant), HAdV DNA was separated from the nuclear fraction (pellet) and from the cytoplasmic fraction using the E.Z.N.A.® Tissue DNA Kit (Omega Bio-tek, Norcross, GA, USA).
# HAdV5-GFP [6] = assay: Time of addition assay; type: cell-based, human adenovirus; conditions: 10-fold IC50; 293β5 cells, HAdV5-GFP 2000 vp/cell
# HAdV-GFP = assay: Thermostability assay (capsid stabilization); type: cell-based, human adenovirus; conditions: 50 μM, A549 cells
# Procedure: HAdV-GFP (37.5 ng) was incubated with compound 16 (50 µM) or the same volume of DMSO for 1 h in complete DMEM. Parallel samples were incubated for 10 min at the indicated temperatures, cooled to r.t., and added to A549 cells on ice to synchronize the infection. After the incubation, cells were washed twice with PBS 1x to remove the nonattached virus and the excess of compound 16 and DMSO. Cells were then incubated for 24 h at 37 °C and 5% CO2 before being visualized for GFP expression in an Olympus inverted microscope Model IX71 (Hamburg, Germany) and analyzed by capturing representative images of each condition using the CellSens Dimension platform (Olympus, Hamburg, Germany).
# [7] = tested on: human cytomegalovirus (HCMV); assay: HCMV DNA replication assay; type: cell-based; conditions: HFF cells, 72 h postinfection, 10-fold IC50 of HAdV plaque assay
# Procedure: The broad antiviral activity of compound 16 was tested using human cytomegalovirus (HCMV) in a DNA replication assay. To avoid the influence of newly generated viral particles from subsequent rounds of infection, HCMV DNA was extracted from HFF cells at 72 h postinfection and quantified in a single round of infection as a measurement of the DNA replication efficiency.
smiles,measurement,setting,value
O=C(Nc1cc(F)cc(C(F)(F)F)c1)c1cc(Cl)ccc1O [Compound 4],CC50,A549 cells,120000 nM
same,IC50,HAdV5-GFP [1],180 nM
CC(C)C(NC(=O)c1cc(Cl)ccc1O)C(=O)Nc1ccc([N+](=O)[O-])cc1Cl (centres unmarked) [Compound 6],CC50,A549 cells,200000 nM
same,IC50,HAdV5-GFP [1],450 nM
"O=C(Nc1ccc([N+](=O)[O-])cc1Cl)c1cc(Cl)ccc1O [Compound 3, niclosamide, reference compound]",Virus Yield Reduction,wild-type HAdV5 [2],82 ± 35 fold
same,Inhibition of HAdV-5 DNA replication (qPCR),"HAdV-5 DNA replication; A549 cells, 24 h, HAdV5 100 vp/cell, 16 at 7.8 μM (10-fold IC50), niclosamide 5 μM, versus DMSO",prevented any detectable DNA replication
same,HPG incorporation compared to control without α-sarcin,"HAdV5; niclosamide 5 μM, independent of virus concentration",under 50%
same,inhibition at 10 µM,HAdV5-GFP [3],100%
same,IC50,HAdV5-GFP [3],600 ± 50 nM
CC1(Nc2ccc(NC(=O)c3cc(Cl)ccc3O)c(Cl)c2)CCCC1 [Compound 5],CC50,A549 cells,157000 nM
same,IC50,HAdV5-GFP [1],270 nM
"O=C(NCC1CCCCC1)c1cc(Cl)ccc1O [Compound 16, 5-Chloro-N-(cyclohexylmethyl)-2-hydroxybenzamide]",Virus yield reduction compared to niclosamide,wild-type HAdV5 [2]; 16 at 10-fold IC50 versus niclosamide 5 μM,2.5 fold
same,Virus Yield Reduction,wild-type HAdV5 [2],208 fold and 208 ± 108 fold
same,inhibition at 7.8 µM,"HAdV-5 DNA replication; Human adenovirus sp., A549, 24 h, read-out: Inhibition of HAdV-5 DNA replication (qPCR)",50%
same,HAdV-mediated endosome lysis,"HAdV5; 10-fold IC50, virus below 12 ng",prevented HAdV-mediated endosome lysis
same,CC50 at 48 h,[4],91200 ± 18400 nM
same,Inhibition of HAdV DNA accessibility to the nucleus,wild-type HAdV5 [5],more than 99%
same,"Inhibition of HAdV infection, compound added at 0 min p.i.",HAdV5-GFP [6],95.3%
same,"Inhibition of HAdV infection, compound added at 20 min p.i.",HAdV5-GFP [6],30.7%
same,"GFP expression 24 h postinfection, virus heated to 48 °C",HAdV-GFP,significant levels of GFP expression
same,"GFP expression 24 h postinfection, virus heated to 52 °C",HAdV-GFP,some residual expression
same,Decrease of total HCMV DNA compared to DMSO control,[7],95%
same,Plaque Assay IC50,"HAdV5-GFP [3]; HAdV5-GFP, low MOI, 293β5 cell line",submicromolar
same,inhibition at 10 µM,HAdV5-GFP [3],100%
same,IC50,HAdV5-GFP [3],780 ± 10 nM
same,Selectivity Index (SI),HAdV5-GFP [3]; ratio of CC50 to IC50 in plaque assay,116.9
